Test results taken from ChEMBL document CHEMBL1139720, “Synthesis and antiproliferative activity of (2R,3R)-disubstituted tetrahydropyrans” (2006).

Legend:
Assay type in all cases: functional
A2780 = experiment: Antiproliferative activity against human A2780 cells after 48 hrs by SRB assay; details: A2780, 48 h
SW1573 = experiment: Antiproliferative activity against human SW1573 cells after 48 hrs by SRB assay; details: SW1573, 48 h
WiDr = experiment: Antiproliferative activity against human WiDr cells after 48 hrs by SRB assay

Row | Compound | GI50 (A2780) [µM] | GI50 (SW1573) [µM] | GI50 (WiDr) [µM] | LC50 (A2780) [µM] | TGI (A2780) [µM] | TGI (SW1573) [µM] | TGI (WiDr) [µM]
1 | CC(C)(C)[Si](C)(C)O[C@@H]1CCCO[C@@H]1CC(=O)OCc1ccccc1 | 23 | 30 | 19 |  |  |  | 
2 | CC(C)(C)[Si](C)(C)OC[C@H]1OCCC[C@H]1O[Si](C)(C)C(C)(C)C | > 100 | > 100 | > 100 |  |  |  | 
3 | COC(=O)/C=C/[C@H]1OCCC[C@H]1O | > 100 | > 100 | > 100 |  |  |  | 
4 | O=C(C[C@H]1OCCC[C@H]1O)OCc1ccccc1 | > 100 | > 100 | > 100 |  |  |  | 
5 | CC(C)(C)[Si](C)(C)O[C@@H]1CCCO[C@@H]1/C=C/C(=O)OCc1ccccc1 | 32 | 37 | 90 |  |  |  | 
6 | O=C(/C=C/[C@H]1OCCC[C@H]1O)OCc1ccccc1 | > 100 | > 100 | > 100 |  |  |  | 
7 | COC(=O)/C=C\[C@H]1OCCC[C@H]1O[Si](C)(C)C(C)(C)C | 7.3 | 6.3 | 38 | 86 | 39 | 68 | 
8 | O=C1C[C@H]2OCCC[C@H]2O1 | > 100 | > 100 | > 100 |  |  |  | 
9 | CC(C)(C)[Si](C)(C)O[C@@H]1CCCO[C@@H]1/C=C\C(=O)OCc1ccccc1 | 29 | 26 | 20 |  | 77 | 92 | 64
10 | O=C1C=C[C@H]2OCCC[C@H]2O1 | 8.3 | 5.7 | 39 |  | 35 |  | 

More lines, main results first:

Row | GI50 (A2780) [µM] | GI50 (SW1573) [µM] | Compound | GI50 (WiDr) [µM] | LC50 (A2780) [µM] | TGI (A2780) [µM] | TGI (SW1573) [µM] | TGI (WiDr) [µM]
11 | 98 | > 100 | COC(=O)/C=C/[C@H]1OCCC[C@H]1O[Si](C)(C)C(C)(C)C | > 100 |  |  |  | 
12 | 28 | 47 | COC(=O)/C=C/[C@H]1OCCC[C@@H]1O[Si](C)(C)C(C)(C)C | 84 |  |  |  | 
13 | > 100 | > 100 | CC(C)(C)[Si](C)(C)O[C@@H]1CCCO[C@@H]1/C=C\CO | > 100 |  |  |  | 
14 | > 100 | > 100 | CC(C)(C)[Si](C)(C)O[C@@H]1CCCO[C@@H]1CO | > 100 |  |  |  | 
15 | > 100 | > 100 | CC(C)(C)[Si](C)(C)O[C@@H]1CCCO[C@@H]1/C=C/C(=O)O | > 100 |  |  |  | 
16 | 86 | > 100 | C=C[C@H]1OCCC[C@H]1O[Si](C)(C)C(C)(C)C | > 100 |  |  |  | 
